For data set [1], the system named is Influenza A virus A/Ned/378/05A (H1N1). Briefly: Antiviral CPE assay, Influenza A (H1N1) in MDCK cells. The data set is classed as cell-based.
Data set [2] deals with Vesicular stomatitis virus. Briefly: microbe, parasite or virus in culture. The data set is classed as cell-based.
For data set [3], the system named is Herpes simplex virus-2 (G). Briefly: microbe, parasite or virus in culture. The data set is classed as cell-based.
Data set [4] has as its system MT-4 cells (human lymphocytic cell line). Briefly: Cytotoxicity in MT-4 cell cultures (MTS). The settings on record: MT-4 cell cultures, MTS assay. On the technique in general: Tetrazolium assays rely on reduction of a dye to a coloured formazan, in cell work by metabolically active cells.
The test system of a further data set is Human Coronavirus (229E). Briefly: microbe, parasite or virus in culture. Format: cell-based.
The test system of another data set is Yellow Fever virus. As to the kind of experiment: microbe, parasite or virus in culture. The data set is classed as cell-based.
The subject of data set [5] is Influenza A virus A/HK/7/87 (H3N2). As to the kind of experiment: Antiviral CPE assay, Influenza A (H3N2) in MDCK cells. Format: cell-based.
The subject of a further data set is Vero cells. Briefly: Cytotoxicity in Vero cell cultures (MTS). Format: cell-based, African green monkey. The settings on record: MTS assay.
Data set [6] relates to MDCK (Madin-Darby Canine Kidney) cells. The settings on record: dog.
The subject of a further data set is Punta Toro virus. As to the kind of experiment: Antiviral CPE assay, Punta Toro virus in Vero cells. The data set is classed as cell-based.
For data set [7], the system named is Coxsackie virus B4. Briefly: Antiviral CPE assay, Coxsackie virus B4 in HEp-2 cells. Format: cell-based.
For data set [8], the system named is Herpes simplex virus-1 (KOS). Briefly: microbe, parasite or virus in culture. Format: cell-based.
Data set [9] relates to HEp-2 (Human Epidermoid carcicoma) cells. Briefly: Cytotoxicity in HEp-2 cell cultures (MTS). The settings on record: HEp-2 cell cultures, MTS assay.
The subject of another data set is Sindbis virus. As to the kind of experiment: Antiviral CPE assay, Sindbis virus in Vero cells. The data set is classed as cell-based.
The next data set has as its system Reo-virus-1. As to the kind of experiment: Antiviral CPE assay, Reovirus-1 in Vero cells. Format: cell-based.
Data set [10] deals with Coxsackie virus B4. Briefly: Antiviral CPE assay, Coxsackie virus B4 in Vero cells. Format: cell-based.
Data set [11] has as its system Respiratory syncytial virus. Briefly: Antiviral CPE assay, Respiratory syncytial virus in HEp-2 cells. The data set is classed as cell-based.
A further data set relates to Adeno virus-2. As to the kind of experiment: organism not typed. The data set is classed as cell-based.
Data set [12] concerns Human immunodeficiency virus (ROD). Briefly: Antiviral CPE assay, HIV-2 (ROD) in MT-4 cells. Particulars: for EC50: Human immunodeficiency virus 2, MT4. The data set is classed as cell-based.
Data set [13] concerns Influenza B virus B/Ned/537/05. Briefly: Antiviral CPE assay, Influenza B in MDCK cells. Format: cell-based. The settings on record: MDCK cell cultures.
In another data set the test system is HEL cells. Particulars: human.
For data set [14], the system named is Human immunodeficiency virus (IIIB). Briefly: Antiviral CPE assay, HIV-1 (IIIB) in MT-4 cells. The data set is classed as cell-based, human immunodeficiency virus type 1 (HIV-1). Particulars: for EC50: Human immunodeficiency virus 1, IIIB, MT4.
A further data set concerns Zika virus. Briefly: Antiviral CPE assay, Zika virus in Vero cells. Format: cell-based.
A further data set relates to Vaccinia virus. Briefly: microbe, parasite or virus in culture. The data set is classed as cell-based.
Data set [15] is described as follows: Cytotoxicity in MT-4 cell cultures (MTS). The settings on record: human, Cytotoxixity CC50, MT-4 cell cultures, MTS assay.
Data set [16] can be described thus: Cytotoxicity in Vero cell cultures (MTS). The settings on record: African green monkey, Vero cells (kidney epithelial cells), uninfected, MTS assay, read-out: Cytotoxixity CC50. The data set is classed as cell-based, African green monkey.
Data set [17] is described as follows: Cytotoxicity in HEp-2 cell cultures (MTS). The settings on record: human.
A short description of data set [18]: in vitro. The settings on record: dog.
A short description of data set [19]: in vitro. Particulars: human, Cytotoxixity CC50.

Here are results for four compounds from paper PMC9680032, “Conformationally Locked Carbocyclic Nucleosides Built on a 4′-Hydroxymethyl-3′-hydroxybicyclo[4.1.0]heptane Template. Stereoselective Synthesis and Antiviral Activity” (The Journal of Organic Chemistry, 2022).

Converted amounts (≈) assume the structure as drawn. Some results are limits rather than exact numbers.

With `Cc1cn(C2CC(O)C(CO)C3CC32)c(=O)[nH]c1=O` (stereo not drawn) [Compound 2, 1-[(1′S,2′S,4′S,5′R,6′R)-4′-Hydroxy-5′-(hydroxymethyl)bicyclo[4.1.0]hept-2′-yl]-5-methylpyrimidine-2,4(1H,3H)-dione], in [1], the “Antiviral EC50 Influenza A virus A/Ned/378/05 (H1N1)” value is on record as greater than 50 µg/mL. For the same compound, the “Antiviral EC50 Vesicular stomatitis virus” value in [2] (HEp-2 cell cultures) is on record as greater than 50 µg/mL. Also, the “Antiviral EC50 Herpes simplex virus-2 (G)” value in data set [3] was greater than 50 µg/mL. The “Cytotoxixity CC50” value is greater than 125 µg/mL in data set [4]; greater than 50 µg/mL in the data set with Vero cells; greater than 50 µg/mL in data set [6]; greater than 50 µg/mL in data set [9]; greater than 50 µg/mL with HEL cells. The “Antiviral EC50 Human Coronavirus (229E)” value with Human Coronavirus (229E) is on record as greater than 50 µg/mL. The “Antiviral EC50 Yellow Fever virus” value with Yellow Fever virus (Vero cell cultures) is given as greater than 50 µg/mL. Moreover, the “Antiviral EC50 Influenza A virus A/HK/7/87 (H3N2)” value in data set [5] is given as greater than 50 µg/mL. In the data set with Punta Toro virus, the “Antiviral EC50 Punta Toro virus” value is reported as greater than 50 µg/mL. For the same compound, the “Antiviral EC50 Coxsackie virus B4” value in the data set on Coxsackie virus B4 [7] and in the data set on Coxsackie virus B4 [10] was greater than 50 µg/mL in each case. For the same compound, in data set [8], the “Antiviral EC50 Herpes simplex virus-1 (KOS)” value is reported as greater than 50 µg/mL. In addition, in the data set on Sindbis virus, the “Antiviral EC50 Sindbis virus” value is greater than 50 µg/mL. Also, the “Antiviral EC50 Reo-virus-1” value in the data set with Reo-virus-1 was greater than 50 µg/mL. For the same compound, the “Antiviral EC50 Respiratory syncytial virus” value in [11] is on record as greater than 50 µg/mL. Moreover, the “Antiviral EC50 Adeno virus-2” value in the data set with Adeno virus-2 is on record as greater than 50 µg/mL. In addition, the “Antiviral EC50 Human immunodeficiency virus (ROD)” value in data set [12] was greater than 125 µg/mL. Moreover, the “Antiviral EC50 Influenza B virus B/Ned/537/05” value in data set [13] is given as greater than 50 µg/mL. In addition, the “Antiviral EC50 Human immunodeficiency virus (IIIB)” value in data set [14] was greater than 125 µg/mL. The “Antiviral EC50 Zika virus” value with Zika virus is recorded as greater than 50 µg/mL. Moreover, the “Antiviral EC50 Vaccinia virus” value in the data set with Vaccinia virus (HEL cell cultures) is listed as greater than 50 µg/mL.
`NC(=O)c1nnn(C2CC(O)C(CO)C3CC32)c1N` (stereo not drawn) [Compound 3b, 5-Amino-1-[(1′S,2′S,4′R,5′R,6′R)-4′-hydroxy-5′-(hydroxymethyl)bicyclo-[4.1.0]hept-2′-yl]-1H-1,2,3-triazole-4-carboxamide]: the melting point (commonly the temperature of the solid-liquid transition) fell in the range of 210 to 213 °C. For the same compound, in [1] (Influenza A virus, H1N1, MDCK), the EC50 (usually the concentration at which the effect is half-maximal) is greater than 50 µg/mL. In addition, the EC50 in data set [2] (Vesicular stomatitis virus, HEp-2, read-out: Antiviral EC50 Vesicular stomatitis virus) is greater than 50 µg/mL. Moreover, the concentration giving a half-maximal response (EC50) in [3] (Human alphaherpesvirus 2, HEL, read-out: Antiviral EC50 Herpes simplex virus-2 (G)) was greater than 50 µg/mL. For the same compound, the CC50 in data set [15] is greater than 125 µg/mL. In the data set with Human Coronavirus (229E) (Human coronavirus 229E, HEL, read-out: Antiviral EC50 Human Coronavirus (229E)), the half-maximal effective concentration (EC50) is greater than 50 µg/mL. In the data set with Yellow Fever virus (Yellow fever virus, Vero, read-out: Antiviral EC50 Yellow Fever virus, Vero cell cultures), the half-maximal effective concentration (EC50) is greater than 50 µg/mL. For the same compound, in data set [5] (Influenza A virus, H3N2, MDCK), the EC50 is greater than 50 µg/mL. Further, in [16], the CC50 is greater than 50 µg/mL. Further, the EC50 in the data set on Punta Toro virus (Punta Toro virus, Vero) is greater than 50 µg/mL. Besides, the EC50 with Coxsackie virus B4 [7] (Enterovirus B, B4, HEp-2) is greater than 50 µg/mL. Moreover, the EC50 in data set [8] (Human alphaherpesvirus 1, HEL, read-out: Antiviral EC50 Herpes simplex virus-1 (KOS)) was greater than 50 µg/mL. The compound also showed a CC50 in [17] greater than 50 µg/mL. Besides, the EC50 in the data set with Sindbis virus (Sindbis virus, Vero) was greater than 50 µg/mL. The same compound yielded an EC50 with Reo-virus-1 (Vero) greater than 50 µg/mL. The EC50 in the data set with Coxsackie virus B4 [10] (Enterovirus B, B4, Vero) is greater than 50 µg/mL. In data set [11] (human respiratory syncytial virus, HEp-2), this compound showed an EC50 greater than 50 µg/mL. For the same compound, the EC50 in the data set on Adeno virus-2 (HEL, read-out: Antiviral EC50 Adeno virus-2) was greater than 50 µg/mL. The compound further registered an EC50 in data set [12] greater than 125 µg/mL. The same compound gave an EC50 in data set [13] (Influenza B virus) greater than 50 µg/mL. The compound also showed an EC50 in data set [14] greater than 125 µg/mL. Moreover, the EC50 with Zika virus (Zika virus, Vero) is greater than 50 µg/mL. The EC50 in the data set with Vaccinia virus (Orthopoxvirus vaccinia, HEL, read-out: Antiviral EC50 Vaccinia virus) was greater than 50 µg/mL. The CC50 in “in vitro [18]” was greater than 50 µg/mL.
For `Nc1ccn([C@@H]2CS[C@H](CO)O2)c(=O)n1` [Lamivudine, reference compound], the CC50 in the data set “in vitro [19]” was greater than 20 µg/mL. Also, the EC50 in [12] was found to be 2.27 µg/mL (≈ 9.9 µM); in data set [14] it was 0.58 µg/mL (≈ 2.53 µM).
For the compound `Cc1ccnc2c1NC(=O)c1cccnc1N2C1CC1` [Neviparine, reference compound], the “Cytotoxixity CC50” value in data set [4] is reported as greater than 4 µg/mL. In addition, the “Antiviral EC50 Human immunodeficiency virus (ROD)” value in [12] is given as greater than 4 µg/mL. Also, in data set [14], the “Antiviral EC50 Human immunodeficiency virus (IIIB)” value was 0.075 µg/mL.
